Source: patent US9518018B2, “3-alkoxy, thioalkyl and amino-4-amino-6-(substituted)picolinates and their use as herbicides” (Dow AgroSciences LLC, priority 2011, dated 2016)

Tested on: not given
Test: not given
Conditions: not given

SMILES | melting point
COC(=O)c1nc(-c2ccc(Cl)c(OC)c2F)cc(N)c1OC [Compound 5, methyl 4-amino-6-(4-chloro-2-fluoro-3-methoxyphenyl)-3-methoxypicolinate] | 114 to 118 °C
COC(=O)c1nc(-c2cc(F)c(I)cc2F)c(F)c(N)c1OC [Compound 25] | 127 to 129 °C
COc1c(Cl)ccc(-c2cc(N)c(OC(F)F)c(C(=O)O)n2)c1F [Compound 64] | 169 to 171 °C
COC(=O)c1nc(-c2ccc(Cl)cc2)cc(N(C)C)c1N [Compound 87, Methyl 3-amino-6-(4-chlorophenyl)-4-(dimethylamino)picolinate] | 153 to 154 °C
COc1c(C(=O)O)nc(-c2ccc(C(F)(F)F)cc2)c(F)c1N [Compound 50] | 135 to 137 °C
COC(=O)c1nc(Cl)c(F)c(N)c1SC [Compound 74, Methyl 4-amino-6-chloro-5-fluoro-3-(methylthio)picolinate] | 75 to 77 °C
COc1c(C(=O)O)nc(-c2cc(F)c(I)cc2F)c(F)c1N [Compound 60] | 132 to 134 °C

Tested on: EPHHL: wild poinsettia (Euphorbia heterophylla)
Test: Post-Emergent Test I herbicidal activity
Assay type: in vivo
Conditions: post-emergence, 336 h, Table 3, 70 g ai/ha, read-out: Visual Growth Reduction (%)-14 Days after Application EPHHL
Outline: (§1)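 Foliar spray, 187 L/ha, track sprayer; plants at 1st–2nd true leaf, 7–21 d old. Carrier: acetone/DMSO + aqueous acetone/IPA/crop oil/Triton X-155; high rate plus ½×–1/16× dilutions. Subirrigated; visual % injury vs untreated at 14 d.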

SMILES | pest or weed control at 70 g/ha
COC(=O)c1nc(-c2ccc(Cl)c(OC)c2F)cc(N)c1OC [Compound 5, methyl 4-amino-6-(4-chloro-2-fluoro-3-methoxyphenyl)-3-methoxypicolinate] | 100%
COc1c(C(=O)O)nc(-c2cc(F)c(I)cc2F)c(F)c1N [Compound 60] | 100%

Same assay, conditions: post-emergence, 336 h, Table 3, 140 g ai/ha, read-out: Visual Growth Reduction (%)-14 Days after Application EPHHL

SMILES | pest or weed control at 140 g/ha
COC(=O)c1nc(-c2cc(F)c(I)cc2F)c(F)c(N)c1OC [Compound 25] | 100%
COC(=O)c1nc(-c2ccc(Cl)cc2)cc(N(C)C)c1N [Compound 87, Methyl 3-amino-6-(4-chlorophenyl)-4-(dimethylamino)picolinate] | 100%
COc1c(C(=O)O)nc(-c2ccc(C(F)(F)F)cc2)c(F)c1N [Compound 50] | 100%
COC(=O)c1nc(Cl)c(F)c(N)c1SC [Compound 74, Methyl 4-amino-6-chloro-5-fluoro-3-(methylthio)picolinate] | 0%

Same assay, conditions: post-emergence, 336 h, Table 3, 280 g ai/ha, read-out: Visual Growth Reduction (%)-14 Days after Application EPHHL

SMILES | pest or weed control at 280 g/ha
COc1c(Cl)ccc(-c2cc(N)c(OC(F)F)c(C(=O)O)n2)c1F [Compound 64] | 95%

Tested on: ABUTH: velvetleaf (Abutilon theophrasti)
Test: Post-Emergent Test I herbicidal activity
Assay type: in vivo
Conditions: Abutilon theophrasti, post-emergence, 336 h, Table 3, 70 g ai/ha, read-out: Visual Growth Reduction (%)-14 Days after Application ABUTH
Outline: as §1

SMILES | pest or weed control at 70 g/ha
COC(=O)c1nc(-c2ccc(Cl)c(OC)c2F)cc(N)c1OC [Compound 5, methyl 4-amino-6-(4-chloro-2-fluoro-3-methoxyphenyl)-3-methoxypicolinate] | 100%
COc1c(C(=O)O)nc(-c2cc(F)c(I)cc2F)c(F)c1N [Compound 60] | 60%

Same assay, conditions: Abutilon theophrasti, post-emergence, 336 h, Table 3, 140 g ai/ha, read-out: Visual Growth Reduction (%)-14 Days after Application ABUTH

SMILES | pest or weed control at 140 g/ha
COC(=O)c1nc(-c2cc(F)c(I)cc2F)c(F)c(N)c1OC [Compound 25] | 70%
COC(=O)c1nc(-c2ccc(Cl)cc2)cc(N(C)C)c1N [Compound 87, Methyl 3-amino-6-(4-chlorophenyl)-4-(dimethylamino)picolinate] | 90%
COc1c(C(=O)O)nc(-c2ccc(C(F)(F)F)cc2)c(F)c1N [Compound 50] | 90%
COC(=O)c1nc(Cl)c(F)c(N)c1SC [Compound 74, Methyl 4-amino-6-chloro-5-fluoro-3-(methylthio)picolinate] | 0%

Same assay, conditions: Abutilon theophrasti, post-emergence, 336 h, Table 3, 280 g ai/ha, read-out: Visual Growth Reduction (%)-14 Days after Application ABUTH

SMILES | pest or weed control at 280 g/ha
COc1c(Cl)ccc(-c2cc(N)c(OC(F)F)c(C(=O)O)n2)c1F [Compound 64] | 50%

Tested on: ZEAMX: corn (Zea mays)
Test: Post-Emergent Test I herbicidal activity
Assay type: in vivo
Conditions: Zea mays, post-emergence, 336 h, Table 3, 70 g ai/ha, read-out: Visual Growth Reduction (%)-14 Days after Application ZEAMX
Outline: as §1

SMILES | pest or weed control at 70 g/ha
COC(=O)c1nc(-c2ccc(Cl)c(OC)c2F)cc(N)c1OC [Compound 5, methyl 4-amino-6-(4-chloro-2-fluoro-3-methoxyphenyl)-3-methoxypicolinate] | 60%
COc1c(C(=O)O)nc(-c2cc(F)c(I)cc2F)c(F)c1N [Compound 60] | 75%

Same assay, conditions: Zea mays, post-emergence, 336 h, Table 3, 140 g ai/ha, read-out: Visual Growth Reduction (%)-14 Days after Application ZEAMX

SMILES | pest or weed control at 140 g/ha
COC(=O)c1nc(-c2cc(F)c(I)cc2F)c(F)c(N)c1OC [Compound 25] | 70%
COC(=O)c1nc(-c2ccc(Cl)cc2)cc(N(C)C)c1N [Compound 87, Methyl 3-amino-6-(4-chlorophenyl)-4-(dimethylamino)picolinate] | 0%
COc1c(C(=O)O)nc(-c2ccc(C(F)(F)F)cc2)c(F)c1N [Compound 50] | 75%
COC(=O)c1nc(Cl)c(F)c(N)c1SC [Compound 74, Methyl 4-amino-6-chloro-5-fluoro-3-(methylthio)picolinate] | 0%

Same assay, conditions: Zea mays, post-emergence, 336 h, Table 3, 280 g ai/ha, read-out: Visual Growth Reduction (%)-14 Days after Application ZEAMX

SMILES | pest or weed control at 280 g/ha
COc1c(Cl)ccc(-c2cc(N)c(OC(F)F)c(C(=O)O)n2)c1F [Compound 64] | 10%

Tested on: CYPES: yellow nutsedge (Cyperus esculentus)
Test: Post-Emergent Test I herbicidal activity
Assay type: in vivo
Conditions: post-emergence, 336 h, Table 3, 70 g ai/ha, read-out: Visual Growth Reduction (%)-14 Days after Application CYPES
Outline: as §1

SMILES | pest or weed control at 70 g/ha
COC(=O)c1nc(-c2ccc(Cl)c(OC)c2F)cc(N)c1OC [Compound 5, methyl 4-amino-6-(4-chloro-2-fluoro-3-methoxyphenyl)-3-methoxypicolinate] | 20%
COc1c(C(=O)O)nc(-c2cc(F)c(I)cc2F)c(F)c1N [Compound 60] | 50%

Same assay, conditions: post-emergence, 336 h, Table 3, 140 g ai/ha, read-out: Visual Growth Reduction (%)-14 Days after Application CYPES

SMILES | pest or weed control at 140 g/ha
COC(=O)c1nc(-c2cc(F)c(I)cc2F)c(F)c(N)c1OC [Compound 25] | 100%
COC(=O)c1nc(-c2ccc(Cl)cc2)cc(N(C)C)c1N [Compound 87, Methyl 3-amino-6-(4-chlorophenyl)-4-(dimethylamino)picolinate] | 90%
COc1c(C(=O)O)nc(-c2ccc(C(F)(F)F)cc2)c(F)c1N [Compound 50] | 100%
COC(=O)c1nc(Cl)c(F)c(N)c1SC [Compound 74, Methyl 4-amino-6-chloro-5-fluoro-3-(methylthio)picolinate] | 0%

Same assay, conditions: post-emergence, 336 h, Table 3, 280 g ai/ha, read-out: Visual Growth Reduction (%)-14 Days after Application CYPES

SMILES | pest or weed control at 280 g/ha
COc1c(Cl)ccc(-c2cc(N)c(OC(F)F)c(C(=O)O)n2)c1F [Compound 64] | 0%

Tested on: ECHCG: barnyardgrass (Echinochloa crus-galli)
Test: Post-Emergent Test I herbicidal activity
Assay type: in vivo
Conditions: post-emergence, 336 h, Table 3, 70 g ai/ha, read-out: Visual Growth Reduction (%)-14 Days after Application ECHCG
Outline: (§2)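 Post-emergence foliar application to young greenhouse plants at 187 L/ha, five rates down to 1/16× of the top rate. Percent injury is assessed visually two weeks later against untreated plants.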

SMILES | pest or weed control at 70 g/ha
COC(=O)c1nc(-c2ccc(Cl)c(OC)c2F)cc(N)c1OC [Compound 5, methyl 4-amino-6-(4-chloro-2-fluoro-3-methoxyphenyl)-3-methoxypicolinate] | 80%
COc1c(C(=O)O)nc(-c2cc(F)c(I)cc2F)c(F)c1N [Compound 60] | 95%

Same assay, conditions: post-emergence, 336 h, Table 3, 140 g ai/ha, read-out: Visual Growth Reduction (%)-14 Days after Application ECHCG

SMILES | pest or weed control at 140 g/ha
COC(=O)c1nc(-c2cc(F)c(I)cc2F)c(F)c(N)c1OC [Compound 25] | 85%
COC(=O)c1nc(-c2ccc(Cl)cc2)cc(N(C)C)c1N [Compound 87, Methyl 3-amino-6-(4-chlorophenyl)-4-(dimethylamino)picolinate] | 40%
COc1c(C(=O)O)nc(-c2ccc(C(F)(F)F)cc2)c(F)c1N [Compound 50] | 70%
COC(=O)c1nc(Cl)c(F)c(N)c1SC [Compound 74, Methyl 4-amino-6-chloro-5-fluoro-3-(methylthio)picolinate] | 0%

Same assay, conditions: post-emergence, 336 h, Table 3, 280 g ai/ha, read-out: Visual Growth Reduction (%)-14 Days after Application ECHCG

SMILES | pest or weed control at 280 g/ha
COc1c(Cl)ccc(-c2cc(N)c(OC(F)F)c(C(=O)O)n2)c1F [Compound 64] | 0%

Tested on: ORYSA: rice (Oryza sativa)
Test: Post-Emergent Test I herbicidal activity
Assay type: in vivo
Conditions: post-emergence, 336 h, Table 3, 70 g ai/ha, read-out: Visual Growth Reduction (%)-14 Days after Application ORYSA
Outline: as §2

SMILES | pest or weed control at 70 g/ha
COC(=O)c1nc(-c2ccc(Cl)c(OC)c2F)cc(N)c1OC [Compound 5, methyl 4-amino-6-(4-chloro-2-fluoro-3-methoxyphenyl)-3-methoxypicolinate] | 0%
COc1c(C(=O)O)nc(-c2cc(F)c(I)cc2F)c(F)c1N [Compound 60] | 15%

Same assay, conditions: post-emergence, 336 h, Table 3, 140 g ai/ha, read-out: Visual Growth Reduction (%)-14 Days after Application ORYSA

SMILES | pest or weed control at 140 g/ha
COC(=O)c1nc(-c2cc(F)c(I)cc2F)c(F)c(N)c1OC [Compound 25] | 0%
COC(=O)c1nc(-c2ccc(Cl)cc2)cc(N(C)C)c1N [Compound 87, Methyl 3-amino-6-(4-chlorophenyl)-4-(dimethylamino)picolinate] | 0%
COc1c(C(=O)O)nc(-c2ccc(C(F)(F)F)cc2)c(F)c1N [Compound 50] | 30%
COC(=O)c1nc(Cl)c(F)c(N)c1SC [Compound 74, Methyl 4-amino-6-chloro-5-fluoro-3-(methylthio)picolinate] | 0%

Same assay, conditions: post-emergence, 336 h, Table 3, 280 g ai/ha, read-out: Visual Growth Reduction (%)-14 Days after Application ORYSA

SMILES | pest or weed control at 280 g/ha
COc1c(Cl)ccc(-c2cc(N)c(OC(F)F)c(C(=O)O)n2)c1F [Compound 64] | 0%

Tested on: CHEAL: lambsquarters (Chenopodium album)
Test: Post-Emergent Test I herbicidal activity
Assay type: in vivo
Conditions: Chenopodium album, post-emergence, 336 h, Table 3, 70 g ai/ha, read-out: Visual Growth Reduction (%)-14 Days after Application CHEAL
Outline: as §1

SMILES | pest or weed control at 70 g/ha
COC(=O)c1nc(-c2ccc(Cl)c(OC)c2F)cc(N)c1OC [Compound 5, methyl 4-amino-6-(4-chloro-2-fluoro-3-methoxyphenyl)-3-methoxypicolinate] | 100%
COc1c(C(=O)O)nc(-c2cc(F)c(I)cc2F)c(F)c1N [Compound 60] | 90%

Same assay, conditions: Chenopodium album, post-emergence, 336 h, Table 3, 140 g ai/ha, read-out: Visual Growth Reduction (%)-14 Days after Application CHEAL

SMILES | pest or weed control at 140 g/ha
COC(=O)c1nc(-c2cc(F)c(I)cc2F)c(F)c(N)c1OC [Compound 25] | 90%
COC(=O)c1nc(-c2ccc(Cl)cc2)cc(N(C)C)c1N [Compound 87, Methyl 3-amino-6-(4-chlorophenyl)-4-(dimethylamino)picolinate] | 90%
COc1c(C(=O)O)nc(-c2ccc(C(F)(F)F)cc2)c(F)c1N [Compound 50] | 90%
COC(=O)c1nc(Cl)c(F)c(N)c1SC [Compound 74, Methyl 4-amino-6-chloro-5-fluoro-3-(methylthio)picolinate] | 0%

Same assay, conditions: Chenopodium album, post-emergence, 336 h, Table 3, 280 g ai/ha, read-out: Visual Growth Reduction (%)-14 Days after Application CHEAL

SMILES | pest or weed control at 280 g/ha
COc1c(Cl)ccc(-c2cc(N)c(OC(F)F)c(C(=O)O)n2)c1F [Compound 64] | 85%
